Reference: patent US11291235B2, “Phloretin” (Firmenich SA, priority 2016, dated 2022)

Legend:
Format in all cases: in vivo
[1] = Sensory evaluation of tropical flavored soft drink containing 7% sucrose, with and without phloretin
[2] = Tasting of phloretin in water or model beverage solution of water and citric acid; conditions: tasted in water or in water and citric acid
[3] = Sensory evaluation of pomegranate juice (POM Brand) sweetened with 150 ppm SG95, with and without phloretin
[4] = Phloretin as taste modifier in foods and beverages containing steviol glycosides and rebaudioside
[5] = Sensory evaluation of tropical juice drink sweetened with sucrose (5%) and Stevia (25 ppm), with and without phloretin
[6] = Sensory assessment of pasteurized sweet water solution of pea protein isolate, with and without phloretin; conditions: 30 ppm phloretin, eight panelists, 0 to 5 scale, Duncan test
Procedure: To evaluate sensory effect of phloretin on pea protein solution Evaluation in blind and randomized conditions of pasteurized sweet water solution of pea protein isolate • 1. Control: no phloretin added • 2. Test: 30 ppm phloretin added (via a presolution 10% in propylene glycol) Weigh and premix protein with sugar (600 gram preparation) Dispersion/solubilisation of protein-sugar-water to obtain a “mother mixture”: disperse mix protein/sugar in water (becher—deionized water 40° C.—Mini Ultra-Turrax T18—Speed 2—time:7 minutes). The same “mother mixture” for both the Control and Test trials. Add phloretin (fresh dilution 10% in propylene Glycol) in Test trial. Split each trials in 2 glass bottles: 100 g for pre-evaluation and generation of sensory attributes—200 gram for sensory assessment Pasteurisation (water bach—95° C.—30 minutes). Cooling bottles at room temperature—Storage in fridge until tasting. Perform Sensory assessment at room temperature. Eight panelists were asked to rate intensity of sensory attributes using a 0 to 5 structured scale (from 0 ‘not perceptible’ to 5 ‘strong intensity’). Sensory descriptors were selected to assess taste, tactile and aromatic stimuli Data treatment was run with XLSTAT software (Duncan mean comparison test). Sensory attributes were selected during a preliminary series of applications evaluated in a free-description mode Symbols for significant differences * at 95% (See FIG. 5). […] Other sensory attributes related to taste (“Sweetness”, “Bitterness”), tactile (mouthcoating) or aromatic stimuli (“cereal”) were unmodified.

[7] = Sensory evaluation of strawberry yogurt sweetened with 250 ppm Stevia (SG95), with and without phloretin
[8] = 30 ppm Phloretin, tropical soft drink with 7% sucrose, in words
[9] = sensory score, 7% Sucrose + 30 ppm Phloretin, tropical soft drink
[10] = 35 ppm Phloretin, pomegranate juice with 150 ppm Stevia, in words
[11] = sensory score, Pom Juice + SG95 @150 ppm + Phloretin @ 35 ppm
[12] = 30 ppm Phloretin, sugar (5%) and Stevia (25 ppm) tropical juice drink, in words
[13] = sensory score, Sucrose (5%) and Stevia (25 ppm) control + Phloretin @ 30 ppm, tropical juice drink
[14] = 20 ppm Phloretin, strawberry yogurt with 250 ppm Stevia, in words
[15] = sensory score, Stevia @250 ppm + 20 ppm Phloretin, strawberry yogurt, n = 29

SMILES: O=C(CCc1ccc(O)cc1)c1c(O)cc(O)cc1O [Phloretin, 3-(4-hydroxyphenyl)-1-(2,4,6-trihydroxyphenyl)propan-1-one]
- acidity/sourness, effect of phloretin [1, 8]: significantly reduced
- astringency, effect of phloretin [1, 8]: significantly reduced
- bitterness, effect of phloretin [1, 8]: significantly reduced
- Acidity/Sourness intensity [1, 9]: 3.27
- Astringency intensity [1, 9]: 2.05
- Bitterness intensity [1, 9]: 1.9
- Mango Flavor intensity [1, 9]: 6.04
- Off-Note intensity [1, 9]: 1.72
- Overall Flavor intensity [1, 9]: 6.76
- Passion Fruit Flavor intensity [1, 9]: 5.69
- Tropical Flavor intensity [1, 9]: 6.55
- own flavor of phloretin [2]: nearly no flavor on its own
- Bitterness Intensity, effect of phloretin [3, 10]: significantly reduces
- Pomegranate flavor intensity, effect of phloretin [3, 10]: significantly increasing
- Sourness intensity, effect of phloretin [3, 10]: significantly reduces
- Astringent [3, 11]: 4.1
- Berry Flv intensity [3, 11]: 6.01
- Bitterness [3, 11]: 3.35
- Pomegranate Flv intensity [3, 11]: 6.68
- Sourness intensity [3, 11]: 4.75
- Sweetness intensity [3, 11]: 5.79
- off-note masking: bitterness [4]: reduced bitterness
- off-note masking: licorice [4]: reduced licorice
- off-note masking: linger [4]: reduced linger
- astringency, effect of phloretin [5, 12]: significantly reduced
- bitterness, effect of phloretin [5, 12]: significantly reduced
- Acidity [5, 13]: 2.93
- Astringency [5, 13]: 1.21
- Bitterness [5, 13]: 0.57
- Long-lasting (sweet) [5, 13]: 0.50
- Off-notes [5, 13]: 1.21
- Overall Flavor [5, 13]: 3.71
- Sweetness [5, 13]: 2.29
- Sweetness, effect of phloretin [6]: unmodified
- aromatic stimuli (cereal), effect of phloretin [6]: unmodified
- bitterness, effect of phloretin [6]: unmodified
- score in astringency, effect of phloretin [6]: significantly reduce
- score in off-tastes, effect of phloretin [6]: significantly reduce
- tactile (mouthcoating), effect of phloretin [6]: unmodified
- Strawberry flavor intensity versus control [7, 14]: higher
- licorice taste versus control [7, 14]: significantly lower
- Acidity [7, 15]: 2.56
- Fruity [7, 15]: 3.25
- Green [7, 15]: 2.38
- Jammy [7, 15]: 3.19
- Licorice [7, 15]: 1.44
- Long Lasting [7, 15]: 2.56
- Strawberry Flavor [7, 15]: 3.56
- Sweetness [7, 15]: 3.38
